According to publication PMC6279831, “Reconstructing the evolutionary history of F420-dependent dehydrogenases” (Scientific Reports, 2018):

Tests used:
AncD1 [1] = tested on: AncD1; set-up: steady-state kinetics with 20 uM F420, absorbance decrease at 400 nm, pH 7.5, 25 °C; conditions: 20 uM F420, pH 7.5, 25 °C; substrate
Protocol: Sugars (phosphorylated as well as non-phosphorylated) and alcohols were tested as substrates. D-glucose-6-phosphate (G6P) was used as a prototype substrate to initially verify activity. Other 6-phosphorylated sugars tested were: D-fructose-6-phosphate, D-mannose-6-phosphate and D-glucosamine-6-phosphate. D-glucose, D-fructose, D-mannose, D-xylose, D-galactose-1-phosphate, D-glucose-1-phosphate, isopropanol, isobutanol, butanol and cyclohexanol were also tested for activity. Kinetics of all enzymes was measured in a Synergy MX microplate reader (BioTek) using 96-well F-bottom plates (Greiner Bio-One GmbH) at 25 °C. Assays were performed in a volume of 200 µL, containing 20 µM F420, 50–100 nM of enzyme and varying concentrations of the substrates in buffer (50 mM KPi, pH 7.5). Reaction was started by adding 100 µL of enzyme. All measurements were followed at λ = 400 nm for 3 min. The observed rates (kobs) were calculated by using a molecular extinction coefficient of ε400 (F420) = 25.7 mM^−1cm^−1. All experiments were repeated three times.

FGD-Cryar (FSD-Cryar) = target: T1, FGD-Cryar (FSD-Cryar) (Cryptosporangium arvum, UniProt A0A010YY07); assay: fluorescence quenching of FMN (ex […] nm, em […] nm), one-site fit; assay type: binding; conditions: read-out: FGD-Noca (FSD-Noca) / kcat [s^-1]
T1 construct: gene CryarDRAFT_1153

AncD1 [2] = assay: as above; assay type: binding; conditions: 0.1 µM cofactor, 25 °C; apparent KD; read-out: FGD-Noca (FSD-Noca) / kcat [s^-1]
FGD-Noca (FSD-Noca) = target: T2, FGD-Noca (FSD-Noca) (Nocardioidaceae bacterium Broad-1, UniProt E9V3D1); assay: as above; assay type: binding; conditions: read-out: FGD-Noca (FSD-Noca) / kcat [s^-1]
T2 construct: full-length, codon-optimised, expressed in E. coli TOP10 (pBAD) as native protein, no SUMO; purified by anion exchange

SMILES	Km (AncD1 [1]) [mM]	Kd (FGD-Cryar (FSD-Cryar)) [µM]	Kd (AncD1 [2]) [µM]	Kd (FGD-Noca (FSD-Noca)) [µM]
O=P(O)(O)OC[C@H]1OC(O)[C@@H](O)[C@@H](O)[C@@H]1O (stereo partly drawn) [D-mannose-6-phosphate]	7.2 ± 4.7	–	–	–
Cc1cc2nc3c(=O)[nH]c(=O)nc-3n(C[C@H](O)[C@H](O)[C@H](O)COP(=O)(O)O)c2cc1C [FMN]	–	> 150	> 150	> 150
O=P(O)(O)OC[C@H]1OC(O)[C@H](O)[C@@H](O)[C@@H]1O (stereo partly drawn) [D-glucose-6-phosphate]	1 ± 0.19	–	–	–
O=P(O)(O)OC[C@H]1OC(O)(CO)[C@@H](O)[C@@H]1O (stereo partly drawn) [D-fructose-6-phosphate]	45 ± 15	–	–	–
